Test results published in patent publication US8158636B2, “Compounds and methods for kinase modulation, and indications therefor” (Plexxikon Inc., priority 2008, dated 2012).

Tests used:
Assay type in all cases: biochemical
[1] = target: Fms (Homo sapiens, UniProt P07333); assay: Kinase activity assay, Fms; details: Table 1h; read-out: activity toward kinase Fms, IC50
Source text: (§1) Assays for the activity of kinases, including, but not limited to, Fms, Kit, B-Raf, B-Raf V600E, c-Raf-1, and TrkA are known in the art, for example as described in US Patent Publication Number US20070032519 and U.S. patent application Ser. No. 11/473,347 (see also, PCT publication WO2007002433), the disclosures of which are hereby incorporated by reference with respect to such assays.

[2] = target: Kit (Homo sapiens, UniProt P10721); assay: Kinase activity assay, Kit; details: Table 1j; read-out: activity toward kinase Kit, IC50
Sequence of Kit (P10721 26-976): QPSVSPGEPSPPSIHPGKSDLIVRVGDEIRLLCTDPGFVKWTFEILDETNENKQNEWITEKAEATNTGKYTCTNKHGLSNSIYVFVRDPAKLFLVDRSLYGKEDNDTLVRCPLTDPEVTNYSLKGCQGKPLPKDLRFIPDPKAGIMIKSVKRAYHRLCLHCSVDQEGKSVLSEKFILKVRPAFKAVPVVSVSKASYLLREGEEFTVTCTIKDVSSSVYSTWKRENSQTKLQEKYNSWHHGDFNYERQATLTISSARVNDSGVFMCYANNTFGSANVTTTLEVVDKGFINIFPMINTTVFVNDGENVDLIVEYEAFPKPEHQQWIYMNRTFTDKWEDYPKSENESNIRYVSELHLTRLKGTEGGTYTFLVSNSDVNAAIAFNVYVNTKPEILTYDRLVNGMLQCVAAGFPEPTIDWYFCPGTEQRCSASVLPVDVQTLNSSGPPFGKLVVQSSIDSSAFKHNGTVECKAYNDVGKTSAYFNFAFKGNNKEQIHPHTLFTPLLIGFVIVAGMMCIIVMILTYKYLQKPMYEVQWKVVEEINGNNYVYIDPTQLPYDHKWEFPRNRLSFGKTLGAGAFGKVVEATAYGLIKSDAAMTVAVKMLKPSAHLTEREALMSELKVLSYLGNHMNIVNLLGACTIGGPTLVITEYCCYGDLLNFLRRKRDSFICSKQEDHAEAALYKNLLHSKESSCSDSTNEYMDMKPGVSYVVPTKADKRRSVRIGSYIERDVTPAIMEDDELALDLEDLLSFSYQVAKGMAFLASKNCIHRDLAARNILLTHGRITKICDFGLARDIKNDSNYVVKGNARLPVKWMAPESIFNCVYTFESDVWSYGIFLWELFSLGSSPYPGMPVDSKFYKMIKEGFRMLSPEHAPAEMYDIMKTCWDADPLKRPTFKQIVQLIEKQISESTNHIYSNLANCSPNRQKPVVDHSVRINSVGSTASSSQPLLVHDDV
Source text: as §1

[3] = target: T1, Flt-3 (Homo sapiens, UniProt P36888); assay: Kinase activity assay, Flt-3; details: Table 1g; read-out: activity toward kinase Flt-3, IC50
T1 sequence (P36888 27-993): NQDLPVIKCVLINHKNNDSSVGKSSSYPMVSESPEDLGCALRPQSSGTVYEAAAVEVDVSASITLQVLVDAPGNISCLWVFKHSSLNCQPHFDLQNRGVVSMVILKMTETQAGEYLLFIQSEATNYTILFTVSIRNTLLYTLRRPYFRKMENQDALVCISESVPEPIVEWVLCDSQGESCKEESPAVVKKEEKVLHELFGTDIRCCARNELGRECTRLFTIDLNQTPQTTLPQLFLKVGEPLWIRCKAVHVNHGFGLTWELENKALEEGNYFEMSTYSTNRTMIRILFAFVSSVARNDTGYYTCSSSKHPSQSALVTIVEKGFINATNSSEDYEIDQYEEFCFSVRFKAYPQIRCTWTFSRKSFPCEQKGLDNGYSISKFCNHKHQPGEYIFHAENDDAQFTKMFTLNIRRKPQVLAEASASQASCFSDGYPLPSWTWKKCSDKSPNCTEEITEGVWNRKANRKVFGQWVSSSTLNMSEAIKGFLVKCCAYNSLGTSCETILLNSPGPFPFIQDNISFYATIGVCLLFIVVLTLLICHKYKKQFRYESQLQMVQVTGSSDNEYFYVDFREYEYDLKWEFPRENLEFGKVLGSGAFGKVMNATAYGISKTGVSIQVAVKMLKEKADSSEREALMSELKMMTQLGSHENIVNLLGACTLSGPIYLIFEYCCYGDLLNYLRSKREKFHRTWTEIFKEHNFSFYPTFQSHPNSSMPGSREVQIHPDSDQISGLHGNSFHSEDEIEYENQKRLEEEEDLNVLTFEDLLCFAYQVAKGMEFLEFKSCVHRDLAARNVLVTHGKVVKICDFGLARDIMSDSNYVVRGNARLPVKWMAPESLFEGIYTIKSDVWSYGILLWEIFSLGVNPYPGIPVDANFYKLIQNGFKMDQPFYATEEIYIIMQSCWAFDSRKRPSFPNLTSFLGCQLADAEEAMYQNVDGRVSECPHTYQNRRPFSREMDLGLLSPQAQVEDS
Source text: as §1

[4] = target: Flt-1 (Homo sapiens, UniProt P17948); assay: Kinase activity assay, Flt-1; details: Table 1f; read-out: activity toward kinase Flt-1, IC50
Source text: as §1

[5] = target: T2, A-Raf (Homo sapiens, UniProt P10398); assay: Kinase activity assay, A-Raf; details: Table 1a; read-out: activity toward kinase A-Raf, IC50
T2 sequence (P10398 1-606): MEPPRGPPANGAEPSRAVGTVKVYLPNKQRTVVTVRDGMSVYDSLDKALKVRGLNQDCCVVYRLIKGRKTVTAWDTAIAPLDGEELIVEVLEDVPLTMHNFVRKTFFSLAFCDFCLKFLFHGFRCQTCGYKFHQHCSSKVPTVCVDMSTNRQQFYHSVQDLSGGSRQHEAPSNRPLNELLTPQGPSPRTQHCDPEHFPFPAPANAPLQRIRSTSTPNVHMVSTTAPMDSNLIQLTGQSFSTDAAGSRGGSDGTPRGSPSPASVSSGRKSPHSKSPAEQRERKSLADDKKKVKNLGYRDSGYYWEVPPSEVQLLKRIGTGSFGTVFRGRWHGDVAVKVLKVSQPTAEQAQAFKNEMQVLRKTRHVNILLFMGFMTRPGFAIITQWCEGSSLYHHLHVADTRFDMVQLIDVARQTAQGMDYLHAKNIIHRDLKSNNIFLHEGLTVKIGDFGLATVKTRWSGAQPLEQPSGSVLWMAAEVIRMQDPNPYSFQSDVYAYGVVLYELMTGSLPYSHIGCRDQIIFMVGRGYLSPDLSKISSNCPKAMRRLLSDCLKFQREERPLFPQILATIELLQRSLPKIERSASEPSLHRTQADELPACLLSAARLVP
Source text: as §1

[6] = target: Kdr (Homo sapiens, UniProt P35968); assay: Kinase activity assay, Kdr; details: Table 1i; read-out: activity toward kinase Kdr, IC50
Sequence of Kdr (P35968 20-1356): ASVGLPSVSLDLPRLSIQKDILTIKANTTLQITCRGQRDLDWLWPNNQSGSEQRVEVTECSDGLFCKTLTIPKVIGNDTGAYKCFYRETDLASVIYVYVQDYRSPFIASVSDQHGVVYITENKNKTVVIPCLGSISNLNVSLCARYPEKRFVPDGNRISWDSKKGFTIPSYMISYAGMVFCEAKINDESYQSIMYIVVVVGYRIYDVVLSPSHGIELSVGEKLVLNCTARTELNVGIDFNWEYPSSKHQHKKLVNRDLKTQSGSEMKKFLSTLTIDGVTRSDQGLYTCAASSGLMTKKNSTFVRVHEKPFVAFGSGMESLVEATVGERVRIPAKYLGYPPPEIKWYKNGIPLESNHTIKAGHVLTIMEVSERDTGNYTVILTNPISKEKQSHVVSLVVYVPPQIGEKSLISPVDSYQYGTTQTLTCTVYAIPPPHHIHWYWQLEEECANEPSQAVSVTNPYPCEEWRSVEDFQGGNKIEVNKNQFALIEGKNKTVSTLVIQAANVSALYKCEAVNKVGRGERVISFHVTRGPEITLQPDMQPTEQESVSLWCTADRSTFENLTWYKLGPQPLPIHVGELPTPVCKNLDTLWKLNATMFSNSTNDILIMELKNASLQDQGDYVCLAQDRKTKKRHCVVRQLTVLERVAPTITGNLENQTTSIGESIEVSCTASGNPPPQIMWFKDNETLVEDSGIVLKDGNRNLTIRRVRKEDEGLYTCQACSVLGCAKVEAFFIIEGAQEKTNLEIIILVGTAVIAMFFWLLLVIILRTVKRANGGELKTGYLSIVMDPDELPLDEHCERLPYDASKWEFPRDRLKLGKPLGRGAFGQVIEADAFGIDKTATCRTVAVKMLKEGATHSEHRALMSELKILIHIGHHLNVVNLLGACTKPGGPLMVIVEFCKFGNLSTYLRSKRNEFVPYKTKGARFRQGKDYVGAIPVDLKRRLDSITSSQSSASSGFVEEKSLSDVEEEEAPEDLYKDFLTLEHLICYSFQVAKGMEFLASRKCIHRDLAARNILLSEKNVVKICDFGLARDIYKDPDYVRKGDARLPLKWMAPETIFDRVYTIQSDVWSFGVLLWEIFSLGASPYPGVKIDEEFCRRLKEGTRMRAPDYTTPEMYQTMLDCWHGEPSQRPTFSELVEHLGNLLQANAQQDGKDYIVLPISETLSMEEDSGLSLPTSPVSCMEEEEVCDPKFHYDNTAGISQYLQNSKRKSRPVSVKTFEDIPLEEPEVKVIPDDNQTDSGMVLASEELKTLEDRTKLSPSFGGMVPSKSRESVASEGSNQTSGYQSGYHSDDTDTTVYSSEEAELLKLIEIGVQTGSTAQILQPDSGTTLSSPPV
Source text: as §1

[7] = target: TrkA (Homo sapiens, UniProt P04629); assay: Kinase activity assay, TrkA; details: Table 1m; read-out: activity toward kinase TrkA, IC50
Source text: as §1

[8] = target: T3, TEC (Homo sapiens, UniProt P42680); assay: Kinase activity assay, TEC; details: Table 1l; read-out: activity toward kinase TEC, IC50
T3 sequence (P42680 1-631): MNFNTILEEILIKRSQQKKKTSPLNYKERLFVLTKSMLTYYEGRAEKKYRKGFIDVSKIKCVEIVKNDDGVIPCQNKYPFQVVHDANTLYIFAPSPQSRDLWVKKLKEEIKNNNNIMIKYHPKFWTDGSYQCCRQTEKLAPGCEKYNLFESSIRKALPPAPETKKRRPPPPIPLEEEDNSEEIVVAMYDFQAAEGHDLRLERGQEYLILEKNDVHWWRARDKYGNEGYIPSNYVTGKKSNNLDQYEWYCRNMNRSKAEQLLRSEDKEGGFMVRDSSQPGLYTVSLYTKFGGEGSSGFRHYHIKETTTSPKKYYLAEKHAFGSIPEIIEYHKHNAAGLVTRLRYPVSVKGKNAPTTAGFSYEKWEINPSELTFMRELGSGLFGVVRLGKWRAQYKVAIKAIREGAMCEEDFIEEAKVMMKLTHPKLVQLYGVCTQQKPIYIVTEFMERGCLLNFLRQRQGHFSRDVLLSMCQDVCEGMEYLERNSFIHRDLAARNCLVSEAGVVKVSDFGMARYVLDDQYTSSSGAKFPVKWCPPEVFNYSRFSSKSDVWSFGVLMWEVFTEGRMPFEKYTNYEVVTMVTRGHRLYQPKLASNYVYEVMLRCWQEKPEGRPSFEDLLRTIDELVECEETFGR
Source text: as §1

[9] = target: B-Raf V600E (Homo sapiens, UniProt P15056, V600E); assay: Kinase activity assay, B-Raf V600E; details: Table 1c; read-out: activity toward kinase B-Raf V600E, IC50
Sequence of B-Raf V600E (P15056 whole entry V600E): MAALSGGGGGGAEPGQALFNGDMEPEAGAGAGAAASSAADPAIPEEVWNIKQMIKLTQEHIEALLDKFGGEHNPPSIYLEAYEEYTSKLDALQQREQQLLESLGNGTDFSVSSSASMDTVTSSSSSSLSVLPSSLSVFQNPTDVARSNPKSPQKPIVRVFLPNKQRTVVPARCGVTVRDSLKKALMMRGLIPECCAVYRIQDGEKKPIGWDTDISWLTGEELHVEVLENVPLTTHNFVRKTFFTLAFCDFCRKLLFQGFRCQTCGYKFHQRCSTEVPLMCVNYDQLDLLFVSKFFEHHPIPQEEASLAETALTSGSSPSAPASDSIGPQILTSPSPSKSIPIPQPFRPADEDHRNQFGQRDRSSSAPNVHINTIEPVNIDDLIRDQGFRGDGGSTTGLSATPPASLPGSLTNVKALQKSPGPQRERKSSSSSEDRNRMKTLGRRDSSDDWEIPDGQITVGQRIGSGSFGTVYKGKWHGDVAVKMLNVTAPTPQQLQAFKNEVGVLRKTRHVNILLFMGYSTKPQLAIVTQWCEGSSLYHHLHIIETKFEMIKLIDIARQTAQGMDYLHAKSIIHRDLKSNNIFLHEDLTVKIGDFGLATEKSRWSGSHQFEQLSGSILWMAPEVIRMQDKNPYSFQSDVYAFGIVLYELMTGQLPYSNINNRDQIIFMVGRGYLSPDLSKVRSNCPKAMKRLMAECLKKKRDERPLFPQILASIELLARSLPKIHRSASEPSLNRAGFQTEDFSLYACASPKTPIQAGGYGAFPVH
Source text: as §1

[10] = target: Src (Homo sapiens, UniProt P12931); assay: Kinase activity assay, Src; details: Table 1k; read-out: activity toward kinase Src, IC50
Source text: as §1

[11] = target: Btk (Homo sapiens, UniProt Q06187); assay: Kinase activity assay, Btk; details: Table 1e; read-out: activity toward kinase Btk, IC50
Sequence of Btk (Q06187 whole entry): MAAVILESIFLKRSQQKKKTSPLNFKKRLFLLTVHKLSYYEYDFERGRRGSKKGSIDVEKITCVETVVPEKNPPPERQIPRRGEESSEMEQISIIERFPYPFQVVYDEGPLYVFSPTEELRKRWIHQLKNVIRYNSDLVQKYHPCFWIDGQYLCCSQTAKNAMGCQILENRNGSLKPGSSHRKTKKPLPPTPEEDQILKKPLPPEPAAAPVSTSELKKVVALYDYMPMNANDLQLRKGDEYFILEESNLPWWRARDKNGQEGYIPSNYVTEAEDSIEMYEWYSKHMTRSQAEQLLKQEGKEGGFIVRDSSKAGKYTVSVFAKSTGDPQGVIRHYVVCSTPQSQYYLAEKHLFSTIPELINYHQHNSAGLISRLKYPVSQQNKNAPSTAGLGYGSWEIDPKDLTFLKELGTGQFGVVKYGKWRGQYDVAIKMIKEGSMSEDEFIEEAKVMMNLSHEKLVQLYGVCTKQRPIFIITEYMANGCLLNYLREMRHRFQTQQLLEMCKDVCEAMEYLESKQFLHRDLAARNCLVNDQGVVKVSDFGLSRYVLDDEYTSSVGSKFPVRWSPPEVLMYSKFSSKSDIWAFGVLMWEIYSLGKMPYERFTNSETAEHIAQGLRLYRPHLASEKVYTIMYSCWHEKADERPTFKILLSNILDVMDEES
Source text: as §1

[12] = target: C-Raf (Homo sapiens, UniProt P04049); assay: Kinase activity assay, C-Raf; details: Table 1d; read-out: activity toward kinase C-Raf, IC50
Source text: as §1

[13] = target: B-Raf (Homo sapiens, UniProt P15056); assay: Kinase activity assay, B-Raf; details: Table 1b; read-out: activity toward kinase B-Raf, IC50
Sequence of B-Raf (P15056 whole entry): as the sequence (P15056 whole entry V600E) above, with E600V counted along it
Source text: as §1

Measured: IC50

Sequence of Fms (P07333 20-972): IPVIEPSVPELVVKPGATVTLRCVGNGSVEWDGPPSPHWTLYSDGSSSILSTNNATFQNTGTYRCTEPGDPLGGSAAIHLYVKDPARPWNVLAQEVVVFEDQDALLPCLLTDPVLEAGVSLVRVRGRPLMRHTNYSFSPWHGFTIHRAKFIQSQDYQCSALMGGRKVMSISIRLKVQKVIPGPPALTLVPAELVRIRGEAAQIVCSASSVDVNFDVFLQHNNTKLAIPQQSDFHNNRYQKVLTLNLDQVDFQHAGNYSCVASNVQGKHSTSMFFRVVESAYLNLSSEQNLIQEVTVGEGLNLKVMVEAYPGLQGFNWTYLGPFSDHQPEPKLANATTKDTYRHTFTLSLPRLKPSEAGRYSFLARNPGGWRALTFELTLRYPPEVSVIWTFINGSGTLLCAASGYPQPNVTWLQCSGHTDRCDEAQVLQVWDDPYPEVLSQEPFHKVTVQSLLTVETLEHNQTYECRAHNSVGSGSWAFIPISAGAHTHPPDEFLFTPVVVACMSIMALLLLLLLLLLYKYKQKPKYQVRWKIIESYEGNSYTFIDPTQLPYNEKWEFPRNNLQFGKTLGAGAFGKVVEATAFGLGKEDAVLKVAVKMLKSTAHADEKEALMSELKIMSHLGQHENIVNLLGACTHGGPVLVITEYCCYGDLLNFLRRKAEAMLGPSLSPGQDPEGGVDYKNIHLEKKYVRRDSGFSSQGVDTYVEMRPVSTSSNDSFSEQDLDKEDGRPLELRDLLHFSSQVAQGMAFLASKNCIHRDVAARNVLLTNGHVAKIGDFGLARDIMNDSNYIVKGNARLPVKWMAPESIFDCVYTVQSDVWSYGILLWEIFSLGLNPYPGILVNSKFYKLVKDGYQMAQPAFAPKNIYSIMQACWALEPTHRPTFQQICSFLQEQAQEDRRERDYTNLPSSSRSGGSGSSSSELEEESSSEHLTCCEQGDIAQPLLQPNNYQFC

Clc1ccc(CNc2ccc(Cc3c[nH]c4ncncc34)cn2)cc1 [P-0001, (4-Chloro-benzyl)-[5-(7H-pyrrolo[2,3-d]pyrimidin-5-ylmethyl)-pyridin-2-yl]-amine]
not listed: [10] | [11] | [12] | [13]
≤ 10 µM: all other assays above

Clc1ccccc1CNc1ccc(Cc2c[nH]c3ncncc23)cn1 [P-0003, (2-Chloro-benzyl)-[5-(7H-pyrrolo[2,3-d]pyrimidin-5-ylmethyl)-pyridin-2-yl]-amine]
not listed: [6] | [10] | [11] | [12] | [13]
≤ 10 µM: all other assays above

Fc1nc(NCc2ccc(Cl)cc2)ccc1Cc1c[nH]c2ncncc12 [P-0006, (4-Chloro-benzyl)-[6-fluoro-5-(7H-pyrrolo[2,3-d]pyrimidin-5-ylmethyl)-pyridin-2-yl]-amine]
not listed: [8] | [11] | [12] | [13]
≤ 10 µM: all other assays above

COc1ccc(CNc2ccc(Cc3c[nH]c4ncncc34)c(F)n2)cn1 [P-0009, [6-Fluoro-5-(7H-pyrrolo[2,3-d]pyrimidin-5-ylmethyl)-pyridin-2-yl]-(6-methoxy-pyridin-3-ylmethyl)-amine]
≤ 10 µM: [1] | [2] | [3] | [5] | [6] | [11] | [9]

COc1ncnc2[nH]cc(Cc3ccc(NCc4ccccc4Cl)nc3)c12 [P-0014, (2-Chloro-benzyl)-[5-(4-methoxy-7H-pyrrolo[2,3-d]pyrimidin-5-ylmethyl)-pyridin-2-yl]-amine]
≤ 10 µM: [1] | [2] | [3] | [5] | [6] | [10] | [9]

COc1ncnc2[nH]cc(Cc3cnc(NCc4cncc(F)c4)nc3)c12 [P-0098, (5-Fluoro-pyridin-3-ylmethyl)-[5-(4-methoxy-7H-pyrrolo[2,3-d]pyrimidin-5-ylmethyl)-pyrimidin-2-yl]-amine]
≤ 10 µM: [1] | [2] | [7] | [11]

COc1ncnc2[nH]cc(Cc3ccc(NCc4ccc(C(F)(F)F)nc4)nc3F)c12 [P-0101, [6-Fluoro-5-(4-methoxy-7H-pyrrolo[2,3-d]pyrimidin-5-ylmethyl)-pyridin-2-yl]-(6-trifluoromethyl-pyridin-3-ylmethyl)-amine]
not listed: [3] | [4] | [5] | [8] | [10]
≤ 10 µM: all other assays above
